Measurements: ChEMBL document CHEMBL1201862, “PubChem BioAssay data set” (2004)
Counter-ions that a name gives are not always drawn.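 Exposure lasted 48 hours, with cells grown in 96-well plates and compounds tested at five concentrations. GI50 = concentration required for 50% inhibition of growth.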 Active and inactive are the calls of the source. Cut-off read from the data, not from the text of the source: active = GI50 up to about 1.1 µM and inactive = higher.

Tests used:
Assay in all cases: NCI anticancer screen, dose series, 48 h
ACHN = tested on: ACHN
CAKI-1 = tested on: CAKI-1
CCRF-CEM = tested on: CCRF-CEM
HL-60 = tested on: HL-60
HOP-62 = tested on: HOP-62
HOP-92 = tested on: HOP-92
K562 = tested on: K562
KM12 = tested on: KM12
LOX IMVI = tested on: LOX IMVI
MOLT-4 = tested on: MOLT-4
Malme-3M = tested on: Malme-3M
NCI-H522 = tested on: NCI-H522
OVCAR-4 = tested on: OVCAR-4
SF-268 = tested on: SF-268
SK-OV-3 = tested on: SK-OV-3
SW-620 = tested on: SW-620
UACC-62 = tested on: UACC-62
DU-145 = tested on: DU-145
MDA-MB-435 = tested on: MDA-MB-435

Measured: GI50

CCN1CCC(O)(c2ccccc2)C(C(=O)c2ccccc2)C1 (stereo not given)
inactive: ACHN 16.7 µM | CAKI-1 14 µM | CCRF-CEM 15.7 µM | HL-60 19.5 µM | HOP-62 > 100 µM | HOP-92 17.7 µM | K562 23.7 µM | KM12 45.4 µM | LOX IMVI 17.4 µM | MOLT-4 21.7 µM | Malme-3M 21.1 µM | NCI-H522 2.62 µM | OVCAR-4 18.2 µM | SF-268 > 31.6 µM | SK-OV-3 > 100 µM | SW-620 17.6 µM | UACC-62 > 45.3 µM

CC1C[C@]2(C)C(NCCN)=Nc3ccccc3[C@@H]2N(C)c2ccccc21 (stereo not given in full)
inactive: ACHN 16.3 µM | CAKI-1 15.5 µM | CCRF-CEM 15.9 µM | DU-145 15.1 µM | HL-60 16.2 µM | HOP-62 16.1 µM | HOP-92 2.3 µM | K562 11.9 µM | KM12 16 µM | LOX IMVI 12.7 µM | MDA-MB-435 10.7 µM | MOLT-4 27.8 µM | Malme-3M 3.72 µM | OVCAR-4 16.3 µM | SF-268 13.9 µM | SW-620 17.5 µM | UACC-62 13.6 µM

COc1ccc(C2C(=O)c3c(OC)cc(OC)cc3OC2c2cccnc2)cc1 (stereo not given)
inactive: ACHN > 100 µM | CAKI-1 > 100 µM | CCRF-CEM 66.2 µM | DU-145 > 100 µM | HOP-62 > 100 µM | K562 59.6 µM | KM12 > 100 µM | LOX IMVI 61.2 µM | MDA-MB-435 44.5 µM | MOLT-4 46 µM | Malme-3M 67.9 µM | NCI-H522 35.8 µM | OVCAR-4 44.2 µM | SF-268 > 100 µM | SK-OV-3 > 100 µM | SW-620 > 100 µM | UACC-62 82.2 µM

COC(=O)CC(NC(=O)OCc1ccccc1)C(C(C)=O)C(=O)OCc1ccccc1 (stereo not given)
inactive: ACHN > 31.6 µM | CAKI-1 > 31.6 µM | CCRF-CEM > 31.6 µM | HL-60 > 31.6 µM | HOP-62 > 10 µM | HOP-92 > 31.6 µM | K562 > 31.6 µM | KM12 > 31.6 µM | LOX IMVI > 100 µM | MOLT-4 > 31.6 µM | Malme-3M > 10 µM | NCI-H522 > 31.6 µM | OVCAR-4 > 10 µM | SF-268 > 31.6 µM | SK-OV-3 > 31.6 µM | SW-620 > 31.6 µM | UACC-62 > 31.6 µM

O=C(CC(C(=O)c1cccs1)c1ccsc1)c1ccccc1 (stereo not given)
inactive: ACHN 69.5 µM | CAKI-1 > 100 µM | CCRF-CEM > 100 µM | DU-145 > 100 µM | HOP-62 > 100 µM | HOP-92 > 100 µM | KM12 38.9 µM | LOX IMVI > 100 µM | MDA-MB-435 31.4 µM | MOLT-4 36.6 µM | NCI-H522 61.7 µM | OVCAR-4 24 µM | SF-268 > 100 µM | SK-OV-3 > 100 µM | SW-620 > 100 µM | UACC-62 50.7 µM

CCCCCCCCCCCCCC1CCC(CC)N1 (stereo not given)
inactive: ACHN 7.23 µM | CAKI-1 15.8 µM | CCRF-CEM 5.2 µM | HL-60 5.14 µM | HOP-62 7.1 µM | HOP-92 16.2 µM | K562 14.8 µM | KM12 17.2 µM | LOX IMVI 17.5 µM | MOLT-4 11.9 µM | Malme-3M 18.4 µM | NCI-H522 18.2 µM | OVCAR-4 17.4 µM | SF-268 8.81 µM | SK-OV-3 17 µM | SW-620 15.9 µM | UACC-62 6.98 µM

NCCCNOCCCN
inactive: ACHN > 100 µM | CAKI-1 > 100 µM | DU-145 > 100 µM | HOP-62 > 100 µM | HOP-92 37.8 µM | K562 > 100 µM | KM12 > 100 µM | MDA-MB-435 > 100 µM | MOLT-4 > 100 µM | Malme-3M > 100 µM | NCI-H522 > 100 µM | OVCAR-4 > 100 µM | SF-268 > 100 µM | SK-OV-3 > 100 µM | SW-620 > 100 µM | UACC-62 > 100 µM

CCOC(=O)C(CNc1ccc(O)cc1)NC(=O)c1ccccc1 (stereo not given)
inactive: ACHN 54.8 µM | CAKI-1 > 100 µM | CCRF-CEM 32.3 µM | HL-60 25.6 µM | HOP-62 > 100 µM | HOP-92 > 100 µM | K562 37.8 µM | KM12 > 100 µM | LOX IMVI 99.8 µM | MOLT-4 50.8 µM | Malme-3M > 100 µM | NCI-H522 75.3 µM | OVCAR-4 > 66.2 µM | SF-268 > 100 µM | SK-OV-3 > 100 µM | SW-620 > 100 µM | UACC-62 > 53.7 µM

Cc1c(NC(=O)CCCl)c(=O)oc2c(C)c3occc(=O)c3cc12
inactive: ACHN 45.5 µM | CAKI-1 42.1 µM | CCRF-CEM 30.9 µM | DU-145 > 100 µM | HL-60 57.7 µM | HOP-62 > 100 µM | HOP-92 28.9 µM | K562 66.4 µM | KM12 > 100 µM | MOLT-4 76.9 µM | Malme-3M 23.5 µM | OVCAR-4 > 100 µM | SF-268 > 100 µM | SK-OV-3 86.9 µM | SW-620 87.7 µM

CC(=O)/C(=C\c1ccco1)C(=O)Nc1ccccc1
inactive: ACHN > 100 µM | CAKI-1 > 100 µM | CCRF-CEM > 100 µM | HL-60 > 100 µM | HOP-62 > 100 µM | HOP-92 > 100 µM | K562 > 100 µM | KM12 > 100 µM | LOX IMVI > 100 µM | MOLT-4 > 100 µM | Malme-3M > 100 µM | NCI-H522 > 100 µM | OVCAR-4 > 100 µM | SF-268 > 100 µM | SK-OV-3 > 100 µM | SW-620 > 100 µM | UACC-62 > 100 µM

NNC(=O)C1CCC(=O)N1S(=O)(=O)c1ccccc1 (stereo not given)
inactive: ACHN > 100 µM | CAKI-1 > 100 µM | CCRF-CEM > 100 µM | HL-60 > 100 µM | HOP-62 > 100 µM | HOP-92 > 100 µM | K562 > 100 µM | KM12 > 100 µM | LOX IMVI > 100 µM | MOLT-4 > 100 µM | Malme-3M > 100 µM | NCI-H522 > 100 µM | OVCAR-4 > 100 µM | SF-268 > 100 µM | SK-OV-3 > 100 µM | SW-620 > 100 µM | UACC-62 > 100 µM

CNC(C)Cc1ccccc1OC (stereo not given) [METHOXYPHENAMINE HYDROCHLORIDE]
inactive: ACHN > 100 µM | CAKI-1 > 100 µM | CCRF-CEM > 100 µM | HL-60 > 100 µM | HOP-62 > 100 µM | HOP-92 > 100 µM | K562 > 100 µM | KM12 > 100 µM | LOX IMVI > 100 µM | MOLT-4 > 100 µM | Malme-3M > 100 µM | NCI-H522 > 100 µM | OVCAR-4 > 100 µM | SF-268 > 100 µM | SK-OV-3 > 100 µM | SW-620 > 100 µM | UACC-62 > 100 µM
